Results as given in BigSolDB 2.1.

In the case of CNC(=O)c1cc(Oc2ccc(N)cc2)ccn1, the solubility (mole fraction) (in THF, 278.15 K) is reported as 0.0919, the solubility (mole fraction) (in THF, 283.15 K) is reported as 0.0992 and the solubility (mole fraction) (in THF, 288.15 K) is reported as 0.108. It also gave a solubility (mole fraction) (in THF, 293.15 K) of 0.119, a solubility (mole fraction) (in THF, 298.15 K) of 0.13 and a solubility (mole fraction) (in THF, 303.15 K) of 0.144. The solubility (mole fraction) (in THF, 308.15 K) was 0.159, the solubility (mole fraction) (in THF, 313.15 K) was 0.174 and the solubility (mole fraction) (in THF, 318.15 K) was 0.194. It also gave a solubility (mole fraction) (in THF, 323.15 K) of 0.214, a solubility (mole fraction) (in acetone, 278.15 K) of 0.046 and a solubility (mole fraction) (in acetone, 283.15 K) of 0.0481. The solubility (mole fraction) (in acetone, 288.15 K) was 0.0514, the solubility (mole fraction) (in acetone, 293.15 K) was 0.0558 and the solubility (mole fraction) (in acetone, 298.15 K) was 0.0616. The solubility (mole fraction) (in acetone, 303.15 K) was 0.0683, the solubility (mole fraction) (in acetone, 308.15 K) was 0.0766 and the solubility (mole fraction) (in acetone, 313.15 K) was 0.086. For the same compound, the solubility (mole fraction) (in acetone, 318.15 K) was 0.0975, the solubility (mole fraction) (in acetone, 323.15 K) was 0.112 and the solubility (mole fraction) (in acetonitrile, 278.15 K) was 0.0286. The solubility (mole fraction) (in acetonitrile, 283.15 K) was 0.033, the solubility (mole fraction) (in acetonitrile, 288.15 K) was 0.0401 and the solubility (mole fraction) (in acetonitrile, 293.15 K) was 0.0497. The solubility (mole fraction) (in acetonitrile, 298.15 K) was 0.0601, the solubility (mole fraction) (in acetonitrile, 303.15 K) was 0.0737 and the solubility (mole fraction) (in acetonitrile, 308.15 K) was 0.091. It also gave a solubility (mole fraction) (in acetonitrile, 313.15 K) of 0.11, a solubility (mole fraction) (in acetonitrile, 318.15 K) of 0.134 and a solubility (mole fraction) (in acetonitrile, 323.15 K) of 0.161. It also gave a solubility (mole fraction) (in acetylacetone, 278.15 K) of 0.0202, a solubility (mole fraction) (in acetylacetone, 283.15 K) of 0.0214 and a solubility (mole fraction) (in acetylacetone, 288.15 K) of 0.0232. It also gave a solubility (mole fraction) (in acetylacetone, 293.15 K) of 0.0256, a solubility (mole fraction) (in acetylacetone, 298.15 K) of 0.0285 and a solubility (mole fraction) (in acetylacetone, 303.15 K) of 0.0321. The solubility (mole fraction) (in acetylacetone, 308.15 K) was 0.0367, the solubility (mole fraction) (in acetylacetone, 313.15 K) was 0.042 and the solubility (mole fraction) (in acetylacetone, 318.15 K) was 0.048. The solubility (mole fraction) (in acetylacetone, 323.15 K) was 0.0558, the solubility (mole fraction) (in dichloromethane, 278.15 K) was 0.00511 and the solubility (mole fraction) (in dichloromethane, 283.15 K) was 0.00821. It also gave a solubility (mole fraction) (in dichloromethane, 288.15 K) of 0.0139, a solubility (mole fraction) (in dichloromethane, 293.15 K) of 0.0211 and a solubility (mole fraction) (in dichloromethane, 298.15 K) of 0.0297. The solubility (mole fraction) (in dichloromethane, 303.15 K) was 0.0413, the solubility (mole fraction) (in dichloromethane, 308.15 K) was 0.0549 and the solubility (mole fraction) (in dichloromethane, 313.15 K) was 0.0727. The solubility (mole fraction) (in dichloromethane, 318.15 K) was 0.0947, the solubility (mole fraction) (in dichloromethane, 323.15 K) was 0.123 and the solubility (mole fraction) (in ethyl acetate, 278.15 K) was 0.0568. It also gave a solubility (mole fraction) (in ethyl acetate, 283.15 K) of 0.0667, a solubility (mole fraction) (in ethyl acetate, 288.15 K) of 0.0793 and a solubility (mole fraction) (in ethyl acetate, 293.15 K) of 0.0939. It also gave a solubility (mole fraction) (in ethyl acetate, 298.15 K) of 0.112, a solubility (mole fraction) (in ethyl acetate, 303.15 K) of 0.131 and a solubility (mole fraction) (in ethyl acetate, 308.15 K) of 0.154. For the same compound, the solubility (mole fraction) (in ethyl acetate, 313.15 K) was 0.181, the solubility (mole fraction) (in ethyl acetate, 318.15 K) was 0.209 and the solubility (mole fraction) (in ethyl acetate, 323.15 K) was 0.242. The solubility (mole fraction) (in methanol, 278.15 K) was 0.00985, the solubility (mole fraction) (in methanol, 283.15 K) was 0.0126 and the solubility (mole fraction) (in methanol, 288.15 K) was 0.0162. For the same compound, the solubility (mole fraction) (in methanol, 293.15 K) was 0.0212, the solubility (mole fraction) (in methanol, 298.15 K) was 0.0285 and the solubility (mole fraction) (in methanol, 303.15 K) was 0.0378. The solubility (mole fraction) (in methanol, 308.15 K) was 0.0497, the solubility (mole fraction) (in methanol, 313.15 K) was 0.0642 and the solubility (mole fraction) (in methanol, 318.15 K) was 0.0825. It also gave a solubility (mole fraction) (in methanol, 323.15 K) of 0.106, a solubility (mole fraction) (in n-butanol, 278.15 K) of 0.0041 and a solubility (mole fraction) (in n-butanol, 283.15 K) of 0.0047. For the same compound, the solubility (mole fraction) (in n-butanol, 288.15 K) was 0.00592, the solubility (mole fraction) (in n-butanol, 293.15 K) was 0.00796 and the solubility (mole fraction) (in n-butanol, 298.15 K) was 0.0101. For the same compound, the solubility (mole fraction) (in n-butanol, 303.15 K) was 0.0135, the solubility (mole fraction) (in n-butanol, 308.15 K) was 0.0174 and the solubility (mole fraction) (in n-butanol, 313.15 K) was 0.0225. It also gave a solubility (mole fraction) (in n-butanol, 318.15 K) of 0.0287, a solubility (mole fraction) (in n-butanol, 323.15 K) of 0.0369 and a solubility (mole fraction) (in n-propanol, 278.15 K) of 0.00552. It also gave a solubility (mole fraction) (in n-propanol, 283.15 K) of 0.00674, a solubility (mole fraction) (in n-propanol, 288.15 K) of 0.00879 and a solubility (mole fraction) (in n-propanol, 293.15 K) of 0.0114. The solubility (mole fraction) (in n-propanol, 298.15 K) was 0.0145, the solubility (mole fraction) (in n-propanol, 303.15 K) was 0.0185 and the solubility (mole fraction) (in n-propanol, 308.15 K) was 0.0241. The solubility (mole fraction) (in n-propanol, 313.15 K) was 0.0312, the solubility (mole fraction) (in n-propanol, 318.15 K) was 0.0398 and the solubility (mole fraction) (in n-propanol, 323.15 K) was 0.0507. The solubility (mole fraction) (in water, 278.15 K) was 0.000327, the solubility (mole fraction) (in water, 283.15 K) was 0.00035 and the solubility (mole fraction) (in water, 288.15 K) was 0.000387. It also gave a solubility (mole fraction) (in water, 293.15 K) of 0.000438, a solubility (mole fraction) (in water, 298.15 K) of 0.000506 and a solubility (mole fraction) (in water, 303.15 K) of 0.000598. The solubility (mole fraction) (in water, 308.15 K) was 0.000715, the solubility (mole fraction) (in water, 313.15 K) was 0.000857 and the solubility (mole fraction) (in water, 318.15 K) was 0.00106. For the same compound, the solubility (mole fraction) (in water, 323.15 K) was 0.00133.
